Data taken from ChEMBL document CHEMBL5356947, “Mitochondria-targeted biotin-conjugated BODIPYs for cancer imaging and therapy” (RSC Med Chem, 2023).

Columns and labels:
MDA-MB-231 = test: Photocytotoxicity against human MDA-MB-231 cells assessed as inhibition of cell growth incubated for 24 hrs by MTT assay; assay type: functional, cell-based; settings: MDA-MB-231, 24 h
[1] = Photosensitizing ability of the compound in MeOH assessed as singlet oxygen generation at 408 nm measured upto 120 sec by DPBF based assay; assay type: functional

Row | SMILES | IC50 (MDA-MB-231) [µM] | Activity [1]
1 | C#CCOc1ccc(C2=C3C(C)=C(I)C(C)=[N+]3[B-](F)(F)n3c(C)c(I)c(C)c32)cc1 | 0.0252 | 
2 | O=C1OC2(c3cc(I)c(O)c(I)c3Oc3c2cc(I)c(O)c3I)c2c(Cl)c(Cl)c(Cl)c(Cl)c21 |  | 0.75
